This passage reports IC50 results from ChEMBL document CHEMBL1133260, “Synthesis and evaluation of aza HUN-7293” (Bioorg Med Chem Lett, 2000).

The term IC50 denotes the midpoint of a concentration-inhibition curve. Read a low IC50 as higher potency.

*1 amine or outer side, *2 acyl side, *3 side chain or, on linkers, in order; H or OH if unused. Where a SMILES comes first, the peptide text is derived from it. [ ]: non-standard residue; d: D form. NMeTrp(1-OMe) = CN[C@@H](Cc1cn(OC)c2ccccc12)C(=O)O; Butanoyl(2R-oxy,4-CN) = N#CCC[C@@H](O)C(=O)O; X1 = CCCC[C@@H](C)C[C@H](N[*:1])C(=O)[*:2]; NMeL = CN[C@@H](CC(C)C)C(=O)O; NMeA = CN[C@@H](C)C(=O)O

Assay type in all cases: functional, cell-based
Test [1] relates to HUVEC. The test is described as follows: The compound was tested for the ability to inhibit inducible cell adhesion molecule expression (E-selectin) in primary human endothelial cell line (HUVEC).
Test [2] deals with HMEC. As to the kind of experiment: The compound was tested for the ability to inhibit inducible cell adhesion molecule expression (ICAM-1) in primary human micro vascular cell line (HMEC-1).
The subject of test [3] is HUVEC. The test is described as follows: The compound was tested for the ability to inhibit inducible cell adhesion molecule expression (VCAM-1) in primary human endothelial cell line (HUVEC).
The test system of test [4] is HUVEC. The test is described as follows: The compound was tested for the ability to inhibit inducible cell adhesion molecule expression (ICAM-1) in primary human endothelial cell line (HUVEC).
Test [5] concerns HMEC. As to the kind of experiment: The compound was tested for the ability to inhibit inducible cell adhesion molecule expression (VCAM-1) in primary human micro vascular cell line (HMEC-1).
Test [6] deals with HMEC. As to the kind of experiment: The compound (synthetic) was tested for the ability to inhibit inducible cell adhesion molecule expression (VCAM-1) in primary human micro vascular cell line (HMEC-1).
The test system of test [7] is HMEC. The test is described as follows: The compound (derived from natural HUN-7293) was tested for the ability to inhibit inducible cell adhesion molecule expression (VCAM-1) in primary human micro vascular cell line (HMEC-1).
The subject of test [8] is HUVEC. As to the kind of experiment: The compound (synthetic) was tested for the ability to inhibit inducible cell adhesion molecule expression (VCAM-1) in primary human endothelial cell line (HUVEC).
In test [9] the test system is HUVEC. The test is described as follows: The compound (derived from natural HUN-7293) was tested for the ability to inhibit inducible cell adhesion molecule expression (ICAM-1) in primary human endothelial cell line (HUVEC).
In test [10] the test system is HUVEC. The test is described as follows: The compound (synthetic) was tested for the ability to inhibit inducible cell adhesion molecule expression (E-selectin) in primary human endothelial cell line (HUVEC).
The subject of test [11] is HUVEC. The test is described as follows: The compound (derived from natural HUN-7293) was tested for the ability to inhibit inducible cell adhesion molecule expression (E-selectin) in primary human endothelial cell line (HUVEC).
Test [12] deals with HMEC. The test is described as follows: The compound (derived from natural HUN-7293) was tested for the ability to inhibit inducible cell adhesion molecule expression (ICAM-1) in primary human micro vascular cell line (HMEC-1).
For test [13], the system named is HUVEC. As to the kind of experiment: The compound (synthetic) was tested for the ability to inhibit inducible cell adhesion molecule expression (ICAM-1) in primary human endothelial cell line (HUVEC).
The subject of test [14] is HUVEC. As to the kind of experiment: The compound (derived from natural HUN-7293) was tested for the ability to inhibit inducible cell adhesion molecule expression (VCAM-1) in primary human endothelial cell line (HUVEC).

Consider `CCCC[C@@H](C)C[C@@H]1NC(=O)[C@@H](CCC#N)NC(=O)[C@H](C)N(C)C(=O)[C@H](C[C@H](C)CCCC)NC(=O)[C@H](Cc2cn(OC)c3ccccc23)N(C)C(=O)[C@H](CC(C)C)NC(=O)[C@@H](CC(C)C)N(C)C1=O`, for which the IC50 in [1] is more than 10000 nM; in test [2], more than 3000 nM; in [3], 560 nM; in [4] it was more than 3000 nM; in test [5], 550 nM.

For `CCCC[C@@H](C)C[C@@H]1NC(=O)[C@H](Cc2cn(OC)c3ccccc23)N(C)C(=O)[C@H](CC(C)C)NC(=O)[C@H](CC(C)C)N(C)C(=O)[C@H](C[C@H](C)CCCC)NC(=O)[C@@H](CCC#N)NC(=O)[C@H](C)N(C)C1=O`, the IC50 in test [6] came out at 58 nM; in test [7] it was 22 nM; in [8] it was 64 nM; in test [9], 540 nM; in test [10], 1000 nM; in [11] it was 540 nM. Moreover, the results for the 50% inhibitory concentration (IC50) in [12], in [13] and in test [14] were 540 nM, 950 nM and 33 nM, respectively.

Consider `CCCC[C@@H](C)C[C@@H]1NC(=O)[C@H](Cc2cn(OC)c3ccccc23)N(C)C(=O)[C@H](CC(C)C)NC(=O)[C@H](CC(C)C)N(C)C(=O)[C@H](C[C@H](C)CCCC)NC(=O)[C@@H](CCC#N)OC(=O)[C@H](C)N(C)C1=O` (cyclo(L[NMeTrp(1-OMe)][X1][NMeA][Butanoyl(2R-oxy,4-CN)][X1][NMeL])), for which the half-maximal inhibitory concentration (IC50) in [1] amounted to 44 nM; in test [2], 24 nM; in test [3] it was 3 nM; in [4], 26 nM; in test [5], 1 nM.
